Laboratory results from patent US20020044973A1, “MICROPARTICLES AND THEIR USE IN CANCER TREATMENT” (priority 1997, published 2002).
In brackets after ≈: the same amount, converted by molar mass.

Experiments:
MCF7/Dox cell line = experiment: Cytotoxicity in doxorubicin-resistant P-glycoprotein expressing daughter cell line (cell counting, Coulter Counter); type: cell-based; details: Homo sapiens, 24 hours incubation, further 72 hours before counting, microspheres expressed as μg doxorubicin per ml
Experimental: More specifically, the experiment compared the cytotoxicity of a novel preparation of doxorubicin covalently-linked to a human serum albumin microsphere carrier between 2 and 3 μm in diameter on a doxorubicin-sensitive human breast cancer cell line and its doxorubicin-resistant P-glycoprotein expressing daughter cell line. […] The human MCF7 cell line and its doxorubicin-resistant daughter cell line, MCF7/Dox were used.
The medium was then changed, cells were incubated for a further 72 hours before harvesting and counting with a Coulter Counter.

C170HM2 = experiment: Example 5: liver tumour weight in tumour-bearing mice, loaded HSAMs vs free doxorubicin; type: in vivo; details: 0.24 mg/kg loaded HSAMs or 0.25 mg/kg free doxorubicin; dosing at day 27, termination at day 41; 12 mice per group
Experimental: 0.24 mg/kg doxorubicin-loaded HSAMs (drug loading approx. 1% w/w) were administered to a group of tumour-bearing mice (C170HM2). A further group received HSAMs, at a protein concentration of 100 mg/ml, as a control. A third group received 0.25 mg/kg free doxorubicin. There were 12 mice per group. Dosing was at day 27, termination at day 41.
For the control, the mean liver tumour weight was c. 1.3 g. Following administration of free doxorubicin, the mean weight was c. 0.3 g.

For `COc1cccc2c1C(=O)c1c(O)c3c(c(O)c1C2=O)C[C@@](O)(C(=O)CO)C[C@@H]3O[C@H]1C[C@H](N)[C@H](O)[C@H](C)O1` [doxorubicin], the IC50 (MCF7/Dox cell line) was 0.387 µg/mL (≈ 0.712 µM) and the “mean liver tumour weight” value (C170HM2) was about 0.3 g.
